What all share (format): in vivo
Holding throughout (details): evaluated after 13 days

The test system of test [1] is Abutilon theophrasti (ABUTH). Description: Pre-emergence herbicidal glasshouse test (Table B1). A digest of the protocol:
(§1)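 Potted plants, glasshouse 24/16° C, 14 h light, 65% RH; spray at 1 d (pre) or 8 d (post) post-sowing; 500 g/h default; acetone/water 50:50 + 0.5% Tween 20. Damage read at 13 d, scored 1–5 (5=80-100%, 1=0-19%).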

In test [2] the test system is Amaranthus retoflexus (AMARE). The description is as above. A digest of the protocol:
as §1

In test [3] the test system is Echinochloa crus-galh (ECHCG). Described as above. A digest of the protocol:
as §1

The subject of test [4] is Ipomoea hederacea (IPOHE). The test is described as above. A digest of the protocol: as §1
In test [5] the test system is Setaria faberi (SETFA). Described as above. A digest of the protocol:
as §1

The test system of test [6] is Abutilon theophrasti (ABUTH). Description: Post-emergence herbicidal glasshouse test (Table B1). A digest of the protocol: as §1
Test [7] relates to Amaranthus retoflexus (AMARE). The test is described as above. A digest of the protocol:
as §1

Test [8] deals with Echinochloa crus-galh (ECHCG). The test is described as above. A digest of the protocol: as §1
For test [9], the system named is Ipomoea hederacea (IPOHE). The description is as above. A digest of the protocol: as §1
The test system of test [10] is Setaria faberi (SETFA). Described as above. A digest of the protocol:
as §1

Five compounds from patent publication US20230219904A1 (SYNGENTA CROP PROTECTION AG, priority 2020, published 2023) can be followed below.

Molecules are shown by their SMILES.

Regarding `Cn1nnnc1NC(=O)c1ccc(OC(F)(F)F)c(NC(=O)C2(C)CC2)c1Cl` [Compound 1.033], the “PRE Application ABUTH, percentage damage on five-point scale” value (“PRE Application ABUTH, percentage damage” below) in test [1] (applied at 500 g/h) was 5 (5=80-100%). Also, in test [2] (applied at 500 g/h), the “PRE Application AMARE, percentage damage on five-point scale” value (from here on “PRE Application AMARE, percentage damage”) is recorded as 5 (5=80-100%). The “PRE Application ECHCG, percentage damage on five-point scale” value (shortened to “PRE Application ECHCG, percentage damage”) in test [3] (applied at 500 g/h) is 5 (5=80-100%). Also, the “PRE Application IPOHE, percentage damage on five-point scale” value (“PRE Application IPOHE, percentage damage” below) in test [4] (applied) is listed as 5 (5=80-100%). In the test on Setaria faberi (SETFA) [5] (applied at 500 g/h), the “PRE Application SETFA, percentage damage on five-point scale” value (from here on “PRE Application SETFA, percentage damage”) is listed as 5 (5=80-100%). Further, the “POST Application ABUTH, percentage damage on five-point scale” value in [6] (applied at 500 g/h) is on record as 5 (5=80-100%). Moreover, the “POST Application AMARE, percentage damage on five-point scale” value in test [7] (applied at 500 g/h) is listed as 5 (5=80-100%). In addition, in test [8] (applied at 500 g/h), the “POST Application ECHCG, percentage damage on five-point scale” value is on record as 5 (5=80-100%). In addition, the “POST Application IPOHE, percentage damage on five-point scale” value in test [9] (applied at 500 g/h) was 5 (5=80-100%). For the same compound, the “POST Application SETFA, percentage damage on five-point scale” value with Setaria faberi (SETFA) [10] (applied at 500 g/h) is recorded as 5 (5=80-100%).

For `Cn1nnnc1NC(=O)c1ccc(OC(F)(F)F)c(NC(=O)CC2CC2)c1Cl` [Compound 1.034], in [1] (applied at 500 g/h), the “PRE Application ABUTH, percentage damage” value is 5 (5=80-100%). Also, the “PRE Application AMARE, percentage damage” value in [2] (applied at 500 g/h) is 5 (5=80-100%). In addition, the “PRE Application ECHCG, percentage damage” value in test [3] (applied at 500 g/h) was 5 (5=80-100%). In addition, the “PRE Application IPOHE, percentage damage” value in test [4] (applied) is listed as 4 (4=60-79%). Also, the “PRE Application SETFA, percentage damage” value in the test on Setaria faberi (SETFA) [5] (applied at 500 g/h) is given as 5 (5=80-100%). Further, in test [6] (applied at 500 g/h), the “POST Application ABUTH, percentage damage on five-point scale” value was 5 (5=80-100%). The “POST Application AMARE, percentage damage on five-point scale” value in [7] (applied at 500 g/h) is 5 (5=80-100%). For the same compound, the “POST Application ECHCG, percentage damage on five-point scale” value in test [8] (applied at 500 g/h) was 5 (5=80-100%). The “POST Application IPOHE, percentage damage on five-point scale” value in test [9] (applied at 500 g/h) is on record as 5 (5=80-100%). For the same compound, the “POST Application SETFA, percentage damage on five-point scale” value in the test on Setaria faberi (SETFA) [10] (applied at 500 g/h) is 5 (5=80-100%).

As to `Cn1nnnc1NC(=O)c1ccc(OC(F)F)c(NC(=O)C2CC2(F)F)c1Cl` (centres unmarked) [Compound 1.035], in test [1] (applied at 125 g/ha), the “PRE Application ABUTH, percentage damage” value is recorded as 5 (5=80-100%). In addition, the “PRE Application AMARE, percentage damage” value in test [2] (applied at 125 g/ha) is 5 (5=80-100%). Also, the “PRE Application ECHCG, percentage damage” value in [3] (applied at 125 g/ha) is reported as 3 (3=40-59%). Also, in test [4] (applied at 125 g/ha), the “PRE Application IPOHE, percentage damage” value is recorded as 3 (3=40-59%). In the test with Setaria faberi (SETFA) [5] (applied at 125 g/ha), the “PRE Application SETFA, percentage damage” value is on record as 4 (4=60-79%). Moreover, the “POST Application ABUTH, percentage damage on five-point scale” value in test [6] (applied at 125 g/ha) is 4 (4=60-79%). Besides, in [7] (applied at 125 g/ha), the “POST Application AMARE, percentage damage on five-point scale” value was 4 (4=60-79%). Further, the “POST Application ECHCG, percentage damage on five-point scale” value in [8] (applied at 125 g/ha) is reported as 4 (4=60-79%). In addition, in test [9] (applied at 125 g/ha), the “POST Application IPOHE, percentage damage on five-point scale” value is on record as 4 (4=60-79%). For the same compound, the “POST Application SETFA, percentage damage on five-point scale” value in the test with Setaria faberi (SETFA) [10] (applied at 125 g/ha) is on record as 4 (4=60-79%).

As to `Cn1nnnc1NC(=O)c1ccc(OC(F)F)c(NC(=O)CC2CC2)c1Cl` [Compound 1.036], the “PRE Application ABUTH, percentage damage” value in test [1] (applied at 125 g/ha) is recorded as 5 (5=80-100%). Moreover, in [2] (applied at 125 g/ha), the “PRE Application AMARE, percentage damage” value is given as 5 (5=80-100%). Moreover, in test [3] (applied at 125 g/ha), the “PRE Application ECHCG, percentage damage” value is recorded as 5 (5=80-100%). Moreover, in test [4] (applied at 125 g/ha), the “PRE Application IPOHE, percentage damage” value is listed as 4 (4=60-79%). In the test with Setaria faberi (SETFA) [5] (applied at 125 g/ha), the “PRE Application SETFA, percentage damage” value is reported as 5 (5=80-100%). In [6] (applied at 125 g/ha), the “POST Application ABUTH, percentage damage on five-point scale” value was 5 (5=80-100%). The “POST Application AMARE, percentage damage on five-point scale” value in test [7] (applied at 125 g/ha) was 5 (5=80-100%). For the same compound, the “POST Application ECHCG, percentage damage on five-point scale” value in test [8] (applied at 125 g/ha) is 5 (5=80-100%). Also, the “POST Application IPOHE, percentage damage on five-point scale” value in test [9] (applied at 125 g/ha) is 4 (4=60-79%). The “POST Application SETFA, percentage damage on five-point scale” value in the test on Setaria faberi (SETFA) [10] (applied at 125 g/ha) is 5 (5=80-100%).

As for `CN(C(=O)CC1CC1)c1c(OC(F)F)ccc(C(=O)Nc2nnnn2C)c1Cl` [Compound 1.037], the “PRE Application ABUTH, percentage damage” value in [1] (applied at 125 g/ha) was 5 (5=80-100%). In addition, the “PRE Application AMARE, percentage damage” value in [2] (applied at 125 g/ha) was 5 (5=80-100%). For the same compound, the “PRE Application ECHCG, percentage damage” value in test [3] (applied at 125 g/ha) is 5 (5=80-100%). Further, the “PRE Application IPOHE, percentage damage” value in test [4] (applied at 125 g/ha) is 4 (4=60-79%). For the same compound, the “PRE Application SETFA, percentage damage” value with Setaria faberi (SETFA) [5] (applied at 125 g/ha) is given as 4 (4=60-79%). For the same compound, in test [6] (applied at 125 g/ha), the “POST Application ABUTH, percentage damage on five-point scale” value was 5 (5=80-100%). In addition, the “POST Application AMARE, percentage damage on five-point scale” value in [7] (applied at 125 g/ha) was 5 (5=80-100%). For the same compound, in [8] (applied at 125 g/ha), the “POST Application ECHCG, percentage damage on five-point scale” value is 5 (5=80-100%). Also, the “POST Application IPOHE, percentage damage on five-point scale” value in [9] (applied at 125 g/ha) is 4 (4=60-79%). Besides, the “POST Application SETFA, percentage damage on five-point scale” value in the test on Setaria faberi (SETFA) [10] (applied at 125 g/ha) was 5 (5=80-100%).
